Paper PMC7009786 (ACS biomaterials science & engineering, 2018)

How the values were obtained:
TOV-21G cells = assay: Cell viability after 72 h incubation; assay type: cell-based; conditions: TOV-21G (Pt-sensitive), 56.6 μM, mean of N=3, Pt-NLS purity 87%
ES-2 cells = assay: Cell viability after 72 h incubation; assay type: cell-based; conditions: ES-2 (Pt-sensitive), 18.4 μM, mean of N=3, Pt-NLS purity 87%
[1] = test system: ovarian cancer-derived cell lines; assay type: cell-based
[2] = after 150 days; cited from earlier work

Compound | decrease of cell viability (TOV-21G cells) | decrease of cell viability (ES-2 cells) | cytotoxicity in vitro (in words) [1] | hydrolysed species [2]
PKKKRKV [Pt-NLS hybrid] | ~ 50% | ~ 30% | high cytotoxicity, significantly superior to carboplatin | –
O=C1[O][Pt]2([NH][C@@H]3CCCC[C@H]3[NH]2)[O]C1=O [oxaliplatin] | – | – | – | 3%
N.N.O=C([O-])C1(C(=O)[O-])CCC1.[Pt+2] [carboplatin, Carboplatin] | 40% | 20% | – | 3%
